The text below walks through data of PubChem BioAssay AID624322 (Sanford-Burnham Center for Chemical Genomics, 2012).

Molecules are shown by their SMILES. pIC50: −log10 of the molar value. Active and inactive are the calls of the source. No rule for the calls is given here.

Broadly, the IC50 is the midpoint of a concentration-inhibition curve. As usually defined, the pIC50 is the IC50 on a negative log10 scale, so that one unit is a factor of ten.

For the experiment, the target named is Sentrin-specific protease 8 (Homo sapiens) (UniProt Q96LD8). Nature of the experiment: potency of human SENP8 inhibitors, dose response, biochemical, Nedd8 protein substrate (AID 624322). Particulars: recombinant SENP8, Nedd8 substrate cleavage inhibition.
Sequence of Sentrin-specific protease 8 (Homo sapiens) (Q96LD8 whole entry, looked up): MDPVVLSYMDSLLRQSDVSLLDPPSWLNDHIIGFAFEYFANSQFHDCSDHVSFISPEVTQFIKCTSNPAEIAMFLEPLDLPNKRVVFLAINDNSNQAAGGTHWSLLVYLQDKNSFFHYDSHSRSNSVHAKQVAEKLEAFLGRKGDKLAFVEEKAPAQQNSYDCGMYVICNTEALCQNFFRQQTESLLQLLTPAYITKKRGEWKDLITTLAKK
For the compound `O=C(NC1C(=O)NNC1c1ccccc1)c1ccccc1` (stereo unspecified), the IC50 is > 100 µM (inactive).

Turning to `COc1ccc(O)c(C(c2c(C)[nH][nH]c2=O)c2c(C)[nH][nH]c2=O)c1`, the pIC50 was 5.14.

As for `CC1=C(SCCC#N)S/C(=C2\SC(C)=C(SCCC#N)S2)S1`, the pIC50 is 6.53. Turning to `CCCn1nc([N+](=O)[O-])c(C(C#N)c2nc3ccccc3o2)c(Cl)c1=O` (stereo unspecified), the IC50 was > 100 µM (inactive). The same measure, in the same setting: then `O=C(O)c1ccc(Cl)c(S(=O)(=O)NCc2ccco2)c1`, with > 100 µM (inactive). Turning to `O=[N+]([O-])c1cc(F)c2cccnc2c1O`, the pIC50 is 4.93. `O=[N+]([O-])c1ccc(N2CCN(Cc3ccccc3)CC2)c2c1no[n+]2[O-]`: the pIC50 is 4.76. `O=C(Nc1c(-c2ccccc2)[nH][nH]c1=O)c1cnccn1`: the negative-log IC50 (pIC50) is 4.37. Turning to `Cn1c(Cc2ccccc2)nnc1SCC(=O)c1cccs1`, the IC50 was > 100 µM (inactive). Consider `O=C(N/N=C/c1ccc([N+](=O)[O-])o1)c1ccccc1-n1cccc1`, for which the IC50 is > 100 µM (inactive). For `Cc1ccc(S(=O)(=O)N[C@H](C(=O)N2CCC(C(=O)N[C@H](C(=O)O)c3ccccc3)CC2)C(C)C)cc1`, the IC50 was > 100 µM (inactive). On the same count and under the same terms, then `O=C(O)CCCCCCCCCCCc1ccccc1`, with > 100 µM (inactive); and `O=C(CCc1ccccc1)c1c(O)cc(O)cc1O`, with > 100 µM (inactive); and `O=c1[nH]c2ccccc2s1`, with > 100 µM (inactive). Consider `NC(=O)c1ccc(N=Cc2ccc([N+](=O)[O-])s2)cc1`, for which the pIC50 was 5.61.

With `COc1ccc(-n2[nH]c(C)cc2=O)cc1`, the IC50 is > 100 µM (inactive).
